Like-named read-outs stand apart in the source and are kept apart here.
What was measured:
[1] = tested on: brain nerve cells (hippocampal ventral dentate gyrus); conditions: adult rat, cited from earlier work
[2] = change of crystalline X-form raw material in pulverization, grinding, tabletting detected by DSC; assay type: physicochemical
Source text: Change of the crystalline X-form raw material in pulverization, grinding, and tabletting (at a pressure of 10 kg) was detected by DSC (see FIGS. 1-4).

[3] = solubility of crystalline X-form agomelatine in solvents; assay type: physicochemical
[4] = test on influencing factors; assay type: physicochemical
Procedure: (§1) Referring to the aforementioned test 6, tablets were manufactured according to formulation and process with hydroxyproplyl methyl cellulose and polyvinylpyrrolindone k30 in a concentration of 15% as a protective agent.
We investigated in combination with formulations of the present invention: the samples were allowed to stand in an open state for 30 days under the conditions of a high temperature of 60° C., a high humidity of RH 92%, and both high temperature and high humidity (40° C., RH75%), respectively. The results are as follows: Test results on influencing factors (%)

[5] = stability in the process (DSC crystal form purity, HPLC relevant substances); assay type: physicochemical; conditions: during formulation process
Source text: as §1
Crystal form purity of the tablets was detected using DSC method with crystal forms and relevant substances as evaluation indexes. Regarding detection of relevant substances, HPLC method was adopted using imported drug as a standard.

X-form crystal purity (%) detected by DSC ([2]; after grinding) | X-form crystal purity (%) detected by DSC ([2]; after pulverization) | X-form crystal purity (%) detected by DSC ([2]; after tabletting (pressure of 10 kg)) | X-form crystal purity (%) detected by DSC ([2]; untreated crystalline X-form) | solubility ([3]; in methanol, ethanol, acetonitrile, DMSO, etc.) | solubility ([3]; in water) | Crystal form purity % ([4]; 0 day) | Crystal form purity % ([4]; 10 days at a high humidity (RH 92%), open state) | Crystal form purity % ([4]; 10 days at a high temperature (60° C.), open state) | Crystal form purity % ([4]; 10 days at both high temperature and high humidity (40° C., RH75%), open state) | Crystal form purity ([5]; DSC) | Relevant substances ([5]; HPLC) | Compound | cell proliferation and neuronal regeneration in hippocampal ventral dentate gyrus ([1]; acute or subacute administration (4 hours or nine weeks)) | cell proliferation and neuronal regeneration in hippocampal ventral dentate gyrus ([1]; long-term (three weeks) administration)
– | – | – | – | – | – | – | – | – | – | – | – | COc1ccc2cccc(CCNC(C)=O)c2c1 [Agomelatine, agomelatine] | no similar situation occurred | could increase cell proliferation and neuronal regeneration
75.1% | 79.4% | 57.7% | 100% | very soluble | almost insoluble | 100% | 85% | 68% | 57% | 100 | 0.42% | COc1ccc2cccc(CCNC(C)=O)c2c1 [agomelatine] | – | –

— patent publication US20160120825A1 (TIANJIN TAIPU PHARMACEUTICAL SCIENCE & TECHNOLOGY …, priority 2013, published 2016)
